Results: patent US8404650B2, “Methods of treating cancer with doxazolidine and prodrugs thereof” (priority 2005, dated 2013)
Like-named read-outs stand apart in the source and are kept apart here.

Experiments:
[1] = Hydrolysis of Doxaz to Doxorubicin in buffers (HPLC); format: physicochemical
Experimental: Doxaz stability in DMSO. Doxaz (22 mg, 40 μmol) was dissolve in 1 mL of DMSO-d6 (stored over activated 4 Å molecular sieves) and analyzed for purity by 500 MHz ^1H NMR. After a 10× dilution with DMSO to a concentration of 4 mM, the stability of Doxaz was then followed by HPLC, observing the relative peak area of the Doxaz peak at 6.6 min with constant injection volume. Doxaz hydrolyzed at a rate of <2% per day in DMSO. Doxaz stability in buffers. HPLC buffer, pH 7.4, 20 mM TEAA, was used for the measurement of hydrolysis of Doxaz. The buffer's pH was adjusted as needed with either triethyl amine or acetic acid to pH 10.4, 9.0, 6.0 and 5.0 with one sample left unchanged at pH 7.4. A volume of 1950 μL of each of these solutions was added to a conical vial and then cooled to 14° C. 50 μL of a 4 mM solution of Doxaz was added to each tube and hydrolysis was followed by HPLC with injections every 10 min. The pH of the buffers was measured before the addition of drug and 1.5 h after the start of hydrolysis.
Both DoxF and Doxaz are relatively stable in dry chloroform and dry DMSO over a period of days. In dry DMSO, Doxaz hydrolyzes to Doxorubicin at less than 2% per day at ambient temperature. In aqueous medium, DoxF is very hydrolytically unstable with respect to formation of Doxaz, and Doxaz is hydrolytically unstable with respect to formation of Doxorubicin. […] Consequently, HPLC was used to monitor the kinetics of hydrolysis of Doxaz to Doxorubicin at 14° C. as a function of pH. […] The hydrolysis was too rapid to measure the rate at 37° C. Extrapolation using the rough rule that the rate will double for every 10° C. increase in temperature, gives an estimation of the half-life at pH 7.4 and 37° C. of 3 to 4 min. The rate constant increases with decreasing pH except for the transition from pH 10.4 to pH 9.0 where the rate constant decreases slightly. At pH 10.5 the solution appears purple, indicative of deprotonation at one of the hydroquinone functional groups. […] The higher rate at low pH is consistent with acid catalysis, probably assisting hydrolytic ring opening as the slow step. […]

liver cancer = details: circumstantial data; treatment of liver cancer; cited from earlier work
cancer cells = details: background statement; cited from earlier work
Water solubility = format: physicochemical; details: as di-cation

Work on `COc1cccc2c1C(=O)c1c(O)c3c(c(O)c1C2=O)C[C@@](O)(C(=O)CO)C[C@@H]3O[C@H]1C[C@@H]2NCO[C@@H]2[C@H](C)O1` [Doxaz, Doxazolidine] yielded a half-life at 100 µM ([1]; 20 mM TEAA buffer, pH 7.4, aqueous media, pH 7.4, 37° C., extrapolated from 14° C. (rate doubles per 10° C.), read-out: Half-life for hydrolysis of Doxaz to Doxorubicin at 37° C.) of 3 to 4 min, a half-life at 100 µM ([1]; 20 mM TEAA buffer, pH 7.5, pH 7.5, 14° C., 20 mM TEAA buffer, read-out: Half-life for hydrolysis of Doxaz to Doxorubicin at 14° C.) of 16 min and a half-life at 100 µM ([1]; 20 mM triethylammonium acetate (TEAA) buffer, pH 7.4, after prodrug activation near a tumor / in vivo, read-out: Half-life of Doxaz (conversion to Doxorubicin) after release) of ~3 min. The “Improvement relative to Doxorubicin in a clinical trial” value (liver cancer) was 75%.

In the case of `COc1cccc2c1C(=O)c1c(O)c3c(c(O)c1C2=O)C[C@@](O)(C(=O)CO)C[C@@H]3OC1CC2C(OCN2CN2COC3C(C)OC(O[C@H]4C[C@](O)(C(=O)CO)Cc5c(O)c6c(c(O)c54)C(=O)c4c(OC)cccc4C6=O)CC32)C(C)O1` (stereo partly drawn) [DoxF, Doxoform, reference compound], the “Anti-tumor activity above Doxorubicin” value (cancer cells) is listed as “approximately 100 fold”.

For `COc1cccc2c1C(=O)c1c(O)c3c(c(O)c1C2=O)C[C@@](O)(C(=O)CO)C[C@@H]3O[C@H]1C[C@H]2[C@H](OCN2C(=O)OCc2ccc(NC(=O)[C@H](CCCCN)NC(=O)[C@H](Cc3ccccc3)NC(=O)[C@@H](C)N)cc2)[C@H](C)O1` [Formula IV, D-Ala-L-Phe-L-Lys-p-aminobenzyloxycarbonyl-Doxaz], the Water solubility (Water solubility) was “excellent water solubility”.
